Measured values reported in PMC6218115, “In Vitro Potency and Preclinical Pharmacokinetic Comparison of All-D-Enantiomeric Peptides Developed for the Treatment of Alzheimer’s Disease” (Journal of Alzheimer's Disease, 2018).
Non-standard residues stand in square brackets, D forms with d. Residues, ends and D or L forms follow the SMILES beside them.

Experiments:
[1] = target: T1, Aβ1-42 (Homo sapiens, UniProt P05067); assay: Aβ aggregation assay (Thioflavin T); assay type: biochemical; conditions: 10 μM Aβ1-42, 5 μM ThT, 20 mM sodium phosphate pH 7.4, 50 mM NaCl, 37°C, 70 h, triplicates, nonlinear regression; read-out: IC50, inhibition of Aβ1-42 aggregation into ThT-positive fibrils
T1 construct: Lyophilized Aβ1 - 42 was dissolved in the respective peptide solution; purchased Isoloid GmbH (recombinant) or Bachem AG (synthetic)
Experimental: The potencies of ANK6, tANK6, cANK6r, and D3 to inhibit Aβ1 - 42 aggregation was examined using Thioflavin T (ThT). For this purpose, a buffer solution composed of 20 mM sodium phosphate buffer (pH 7.4) including 50 mM sodium chloride, and 5μM ThT was prepared. Afterwards, ANK6, tANK6, cANK6r, or D3 were diluted in this solution, respectively, to final peptide concentrations between 0.3125 and 80μM (ANK6 and tANK6:0.3125, 0.625, 1.25, 2.5, 5, 10, 20μM; cANK6r: 1.25, 2.5, 5, 10, 20, 40, 80μM; D3:1.17, 2.34, 4.7, 9.4, 18.8, 37.5, 75μM).
The buffer solution only served as negative control (blank). Lyophilized Aβ1 - 42 was dissolved in the respective peptide solution to a final concentration of 10μM. D-peptide solutions with the highest concentration of the respective D-peptide containing all components, except of Aβ1 - 42, served as negative controls. Aβ1 - 42 solved in buffer solution without D-peptide served as positive control. 100μL of each solution were transferred into the wells (triplicates) of 96 well microplates (PS, black, non-binding from Greiner Bio-One, Germany) and fluorescence signals (excitationλ 440 nm, emissionλ 490 nm) were measured in a Polarstar Optima plate reader (BMG, Germany) at 37°C every 20 min for 70 h. Afterwards, the respective blank curves were subtracted from each aggregation curve to exclude background fluorescence. […] The half maximal inhibitory concentration (IC50 value) was determined by plotting the percent inhibition against the respective D-peptides’ concentrations. Datasets were fitted by nonlinear regression (one site – specific binding with Hill slope, GraphPad Prism 5).

[2] = test system: α1-acid glycoprotein (AGP); conditions: Jiang et al.; read-out: KD of D3 to AGP; cited from earlier work
Description: This had been expected before as all three D-peptides have a positive net charge and AGP is known to more strongly bind positively charged molecules as compared to HSA, which is known to bind rather acidic or neutral molecules. This had been observed previously for D3 in a similar manner. […] The unbound fractions (fu) of the th ...

T1 sequence (P05067 672-713 limits assumed): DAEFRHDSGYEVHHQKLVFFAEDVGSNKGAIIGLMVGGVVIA

In the case of CC(C)C[C@@H](NC(=O)[C@@H](CCCNC(=N)N)NC(=O)[C@H](NC(=O)[C@@H](CCCNC(=N)N)NC(=O)[C@H]1CCCN1C(=O)[C@H](N)CCCNC(=N)N)[C@H](C)O)C(=O)N[C@H](Cc1c[nH]cn1)C(=O)N[C@@H](C(=O)N[C@H](Cc1c[nH]cn1)C(=O)N[C@H](CCCNC(=N)N)C(=O)N[C@H](CC(N)=O)C(=O)N[C@H](CCCNC(=N)N)C(N)=O)[C@H](C)O [Peptide D3] (H-[dR][dP][dR][dT][dR][dL][dH][dT][dH][dR][dN][dR]-NH2), the IC50 [1] is given as 7.2 µM and the Kd [2] is given as 1.8 µM.
